The record followed here is patent US9359308B2, “Pyrazine kinase inhibitors” (Portola Pharmaceuticals, Inc., priority 2011, dated 2016).

The assay has as its target T1, full length active recombinant SYK enzyme (Homo sapiens, UniProt P43405).
T1 construct: full length active recombinant SYK enzyme (Millipore, Calif.); purchased Millipore
The assay is described as follows: Inhibition of Syk tyrosine phosphorylation activity (LANCE TR-FRET kinase assay). The format is biochemical. The note with it: activity in the Syk assays, class symbols. A digest of the protocol:
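IC50 was derived by non-linear regression of TR-FRET signal (Eu-W1024-PY100 donor, streptavidin-APC acceptor) read 1 h after EDTA quench. The kinase step ran 1 h at room temperature with 1 nM full-length SYK, 550 nM biotinylated DEEDYESP substrate and 100 μM ATP in Tris pH 7.5/MgCl2/DTT at 3% final DMSO.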
(TR-FRET usually uses a lanthanide donor and a delayed reading to cut background.)

Usually IC50 stands for the concentration at which inhibition is half-maximal.

Turning to `NC(=O)c1ncc(N[C@@H]2CCCC[C@@H]2N)nc1Nc1ccc(C(=O)N2CCC2)cc1` [Example 295, 5-((1R,2S)-2-aminocyclohexylamino)-3-(4-(azetidine-1-carbonyl)phenylamino)pyrazine-2-carboxamide], the IC50 lay in the range of 0.001 to 0.01 µM.

For `CC(C)(C)[C@@H](Nc1cnc(C(N)=O)c(Nc2cnc3ccc(F)cc3c2)n1)C(N)=O` [Example 234, (R)-5-(1-amino-3,3-dimethyl-1-oxobutan-2-ylamino)-3-(6-fluoroquinolin-3-ylamino)pyrazine-2-carboxamide], the half-maximal inhibitory concentration (IC50) was in the range of 0.001 to 0.01 µM.

As to `COc1ccc(Nc2nc(N[C@@H]3CCCC(F)(F)[C@@H]3N)cnc2C(N)=O)cc1OC` [Example 165, 5-((1R,2R)-2-amino-3,3-difluorocyclohexylamino)-3-(3,4-dimethoxyphenylamino)pyrazine-2-carboxamide], the IC50 lay within 0.001 to 0.01 µM.

Regarding `CN1C(=O)COc2ccc(Nc3nc(N[C@@H]4CCCC(F)(F)[C@@H]4N)cnc3C(N)=O)cc21` [Example 230, 5-((1R,2R)-2-amino-3,3-difluorocyclohexylamino)-3-(4-methyl-3-oxo-3,4-dihydro-2H-benzo[b][1,4]oxazin-6-ylamino)pyrazine-2-carboxamide], the 50% inhibitory concentration (IC50) was in the range of 0.01 to 0.1 µM.

Turning to `NC(=O)c1ncc(N[C@H](Cc2c[nH]c3ccccc23)C(N)=O)nc1Nc1ccc2ncccc2c1` [Example 388, (R)-5-(1-amino-3-(1H-indol-3-yl)-1-oxopropan-2-ylamino)-3-(quinolin-6-ylamino)pyrazine-2-carboxamide], the IC50 was 0.001 to 0.01 µM.

On to `COc1cc(Nc2nc(N[C@H](CC3CC3)C(N)=O)cnc2C(N)=O)cc(OC)c1` [Example 164, (R)-5-(1-amino-3-cyclopropyl-1-oxopropan-2-ylamino)-3-(3,5-dimethoxyphenylamino)pyrazine-2-carboxamide], for which the 50% inhibitory concentration (IC50) fell in the range of 0.001 to 0.01 µM.

With `Cc1cc(Nc2nc(N[C@@H]3CCCC(F)(F)[C@@H]3N)cnc2C(N)=O)sn1` [Example 23, 5-((1R,2R)-2-amino-3,3-difluorocyclohexylamino)-3-(3-methylisothiazol-5-ylamino)pyrazine-2-carboxamide], the half-maximal inhibitory concentration (IC50) lay within 0.01 to 0.1 µM.

As to `NC(=O)c1ncc(N[C@@H]2CCCC[C@@H]2N)nc1Nc1ccc(F)nc1` [Example 304, 5-((1R,2S)-2-aminocyclohexylamino)-3-(6-fluoropyridin-3-ylamino)pyrazine-2-carboxamide], the IC50 lay within 0.01 to 0.1 µM.

Consider `CC[C@@H](Nc1cnc(C(N)=O)c(Nc2ccc(-c3nnco3)cc2)n1)C(N)=O` [Example 27, (R)-3-(4-(1,3,4-oxadiazol-2-yl)phenylamino)-5-(1-amino-1-oxobutan-2-ylamino)pyrazine-2-carboxamide], for which the half-inhibitory concentration (IC50) was in the range of 0.01 to 0.1 µM.

With `NC(=O)c1ncc(N[C@H](Cc2ccncc2)C(N)=O)nc1Nc1ccc2ncccc2c1` [Example 361, (R)-5-(1-amino-1-oxo-3-(pyridin-4-yl)propan-2-ylamino)-3-(quinolin-6-ylamino)pyrazine-2-carboxamide], the IC50 fell in the range of 0.01 to 0.1 µM.

In the case of `Cn1cc(Nc2nc(N[C@@H]3CCCC[C@@H]3N)cnc2C(N)=O)cn1` [Example 186, 5-((1R,2S)-2-aminocyclohexylamino)-3-(1-methyl-1H-pyrazol-4-ylamino)pyrazine-2-carboxamide], the IC50 fell in the range of 0.01 to 0.1 µM.

For the compound `CC[C@@H](Nc1cnc(C(N)=O)c(Nc2ccc3ncncc3c2)n1)C(N)=O` [Example 404, (R)-5-(1-amino-1-oxobutan-2-ylamino)-3-(quinazolin-6-ylamino)pyrazine-2-carboxamide], the IC50 is 0.01 to 0.1 µM.

For the compound `Cc1cc(Nc2nc(N[C@H](CC3CC3)C(N)=O)cnc2C(N)=O)c[n+]([O-])c1` [Example 100, (R)-3-(6-(1-amino-3-cyclopropyl-1-oxopropan-2-ylamino)-3-carbamoylpyrazin-2-ylamino)-5-methylpyridine 1-oxide], the concentration for half-maximal inhibition (IC50) lay within 0.01 to 0.1 µM.

For `NC(=O)c1ncc(N[C@@H](C(N)=O)C2CC2)nc1Nc1cnc2ccccc2c1` [Example 68, (R)-5-(2-amino-1-cyclopropyl-2-oxoethylamino)-3-(quinolin-3-ylamino)pyrazine-2-carboxamide], the concentration for half-maximal inhibition (IC50) lay within 0.001 to 0.01 µM.

Consider `CC[C@@H](Nc1cnc(C(N)=O)c(Nc2cnn(CC3CC3)c2)n1)C(N)=O` [Example 218, (R)-5-(1-amino-1-oxobutan-2-ylamino)-3-(1-(cyclopropylmethyl)-1H-pyrazol-4-ylamino)pyrazine-2-carboxamide], for which the IC50 lay within 0.1 to 1 µM.

Regarding `NC(=O)c1ncc(N[C@@H]2CCCC[C@@H]2N)nc1N[C@H]1COc2ccccc2C1` [Example 415, 5-(((1R,2S)-2-aminocyclohexyl)amino)-3-((R)-chroman-3-ylamino)pyrazine-2-carboxamide], the 50% inhibitory concentration (IC50) fell in the range of 0.01 to 0.1 µM.

Consider `NC(=O)c1ncc(N[C@@H]2CCCC(F)(F)[C@@H]2N)nc1Nc1cnn2ccccc12` [Example 447, 5-(((1R,2R)-2-amino-3,3-difluorocyclohexyl)amino)-3-(pyrazolo[1,5-a]pyridin-3-ylamino)pyrazine-2-carboxamide], for which the IC50 lay in the range of 0.001 to 0.01 µM.

Consider `COc1ccc(Nc2nc(N[C@@H]3CCCC(F)(F)[C@@H]3N)cnc2C(N)=O)cn1` [Example 330, 5-((1R,2R)-2-amino-3,3-difluorocyclohexylamino)-3-(6-methoxypyridin-3-ylamino)pyrazine-2-carboxamide], for which the IC50 lay in the range of 0.1 to 1 µM.

Take `NC(=O)c1ncc(N[C@@H](C(N)=O)c2ccccc2)nc1Nc1cnc2cccnc2c1` [Example 411, (R)-3-(1,5-naphthyridin-3-ylamino)-5-(2-amino-2-oxo-1-phenylethylamino)pyrazine-2-carboxamide]: the concentration for half-maximal inhibition (IC50) lay within 0.01 to 0.1 µM.

As to `NC(=O)c1ncc(N[C@@H]2CCCC[C@@H]2N)nc1Nc1cc(-n2nccn2)cc(-n2nccn2)c1` [Example 424, 5-(((1R,2S)-2-aminocyclohexyl)amino)-3-((3,5-di(2H-1,2,3-triazol-2-yl)phenyl)amino)pyrazine-2-carboxamide], the IC50 was in the range of 0.001 to 0.01 µM.

As to `NC(=O)c1ncc(N[C@@H]2CCCC[C@@H]2N)nc1Nc1cncc(C(F)(F)F)c1` [Example 197, 5-((1R,2S)-2-aminocyclohexylamino)-3-(5-(trifluoromethyl)pyridin-3-ylamino)pyrazine-2-carboxamide], the IC50 was 0.001 to 0.01 µM.

With `Cc1ccc(Nc2nc(N[C@@H](C(N)=O)C(C)C)cnc2C(N)=O)cc1C` [Example 162, (R)-5-(1-amino-3-methyl-1-oxobutan-2-ylamino)-3-(3,4-dimethylphenylamino)pyrazine-2-carboxamide], the IC50 was 0.01 to 0.1 µM.

For the compound `CC(C)[C@@H](Nc1cnc(C(N)=O)c(Nc2cccc(OC(F)(F)F)c2)n1)C(N)=O` [Example 147, (R)-5-(1-amino-3-methyl-1-oxobutan-2-ylamino)-3-(3-(trifluoromethoxy)phenylamino)pyrazine-2-carboxamide], the IC50 was in the range of 0.1 to 1 µM.

For the compound `NC(=O)c1ncc(NC2(C(N)=O)CC2)nc1Nc1cnc2ccc(F)cc2c1` [Example 175, 5-(1-carbamoylcyclopropylamino)-3-(6-fluoroquinolin-3-ylamino)pyrazine-2-carboxamide], the half-maximal inhibitory concentration (IC50) was in the range of 0.001 to 0.01 µM.

For `NC(=O)c1ncc(N[C@@H]2CCCC(F)(F)[C@@H]2N)nc1Nc1ccc(-c2ccno2)cc1` [Example 18, 5-((1R,2R)-2-amino-3,3-difluorocyclohexylamino)-3-(4-(isoxazol-5-yl)phenylamino)pyrazine-2-carboxamide], the IC50 lay within 0.01 to 0.1 µM.
